# Measurements taken from publication PMC4527083 (European journal of pharmacology, 2014).
# Biological target: HERG potassium channel (human ether-a-go-go related gene) (Homo sapiens, UniProt Q12809)
# Experiment: cell-based
# HERG potassium channel (human ether-a-go-go related gene), sequence (Q12809 whole entry): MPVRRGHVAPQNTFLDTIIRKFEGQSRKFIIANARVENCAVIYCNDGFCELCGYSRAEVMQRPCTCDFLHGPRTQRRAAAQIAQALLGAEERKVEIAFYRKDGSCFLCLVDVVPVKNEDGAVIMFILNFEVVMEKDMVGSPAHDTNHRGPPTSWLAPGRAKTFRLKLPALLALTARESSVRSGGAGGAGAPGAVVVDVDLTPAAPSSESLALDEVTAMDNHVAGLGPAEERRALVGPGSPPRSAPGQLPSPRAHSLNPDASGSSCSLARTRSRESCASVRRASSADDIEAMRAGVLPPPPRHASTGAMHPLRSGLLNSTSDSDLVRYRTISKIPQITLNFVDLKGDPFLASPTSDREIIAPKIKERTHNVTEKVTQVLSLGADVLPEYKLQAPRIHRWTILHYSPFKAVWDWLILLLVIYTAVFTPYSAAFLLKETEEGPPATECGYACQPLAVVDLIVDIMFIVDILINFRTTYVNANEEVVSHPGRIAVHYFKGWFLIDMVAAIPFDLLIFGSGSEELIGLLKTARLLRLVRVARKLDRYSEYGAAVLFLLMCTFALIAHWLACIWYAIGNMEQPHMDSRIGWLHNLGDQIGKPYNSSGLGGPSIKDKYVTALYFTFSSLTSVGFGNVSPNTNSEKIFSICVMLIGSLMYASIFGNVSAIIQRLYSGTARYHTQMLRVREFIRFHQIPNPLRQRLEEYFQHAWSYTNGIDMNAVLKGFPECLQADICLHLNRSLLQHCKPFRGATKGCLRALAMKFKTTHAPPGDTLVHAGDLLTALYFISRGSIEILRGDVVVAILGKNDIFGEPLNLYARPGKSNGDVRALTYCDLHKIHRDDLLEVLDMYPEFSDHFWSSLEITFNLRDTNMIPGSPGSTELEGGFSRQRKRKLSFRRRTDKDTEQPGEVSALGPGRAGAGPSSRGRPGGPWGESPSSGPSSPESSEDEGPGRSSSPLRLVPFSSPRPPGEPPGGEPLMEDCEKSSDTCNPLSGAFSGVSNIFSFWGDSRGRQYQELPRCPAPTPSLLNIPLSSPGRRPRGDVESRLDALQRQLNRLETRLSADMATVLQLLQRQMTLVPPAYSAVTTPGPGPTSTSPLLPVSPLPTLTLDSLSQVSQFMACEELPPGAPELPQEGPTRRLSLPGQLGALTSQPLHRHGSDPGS
compound,measurement,value
"CCCCCCCCCCCC[N+](C)(C)CCOc1ccccc1 [DB, domiphen bromide]",IC50,9 nM
